The record followed here is ChEMBL document CHEMBL3045512, “Synthesis of some novel triazoloquinazolines and triazinoquinazolines and their evaluation for anti-inflammatory activity” (Med Chem Res, 2012).

Data set [1] relates to Mus musculus. In words: Toxicity in Mus musculus albino (mouse) assessed as GPx activity per gram of Hb at 300 mg/kg, po for 10 days (Rvb =179.16 +/- 10.45 U/g Hb). Set-up: dose 300 mg/kg, route oral. It is filed as organism-based. The settings on record: in vivo, 240 h.
Data set [2] relates to Mus musculus. Nature of the data set: Toxicity in Mus musculus albino (mouse) assessed as GSH activity at 300 mg/kg, po for 10 days (reference value: 59.57 +/- 5.10 %). The data set is classed as organism-based. On the set-up: dose 300 mg/kg, route oral. The following applies: in vivo, 240 h.
Data set [3] concerns Mus musculus. In words: Toxicity in Mus musculus albino (mouse) assessed as rapid respiration at 80 to 375 mg/kg, ip. On the set-up: dose 80-375 mg/kg, route intraperitoneal. The data set is classed as organism-based. The settings on record: in vivo.
In data set [4] the test system is Mus musculus. Nature of the data set: Toxicity in Mus musculus albino (mouse) assessed as tremor inhind limbs at 80 to 375 mg/kg, ip. Set-up: dose 80-375 mg/kg, route intraperitoneal. It is filed as organism-based, Limb. The following applies: in vivo.
Data set [5] deals with Mus musculus. Nature of the data set: Toxicity in Mus musculus albino (mouse) assessed as serum gamma-glutamyl transferase level at 300 mg/kg, po for 10 days (reference value: 4.43 +/- 0.31 U/l). It is filed as organism-based. On the set-up: dose 300 mg/kg, route oral. The following applies: in vivo, 240 h.
Data set [6] relates to Mus musculus. In words: Toxicity in Mus musculus albino (mouse) assessed as serum SGPT level at 300 mg/kg, po for 10 days (reference value: 35.82 +/- 5.26 U/l). The data set is classed as organism-based. Set-up: dose 300 mg/kg, route oral. The following applies: in vivo, 240 h.
For data set [7], the system named is Mus musculus. Nature of the data set: Toxicity in Mus musculus albino (mouse) assessed as bluish toe at 80 to 375 mg/kg, ip. It is filed as organism-based. Set-up: dose 80-375 mg/kg, route intraperitoneal. The settings on record: in vivo.
For data set [8], the system named is Mus musculus. Nature of the data set: Toxicity in Mus musculus albino (mouse) assessed as serum SGOT level at 300 mg/kg, po for 10 days (reference value: 9.74 +/- 1.73 U/l). The data set is classed as organism-based. On the set-up: dose 300 mg/kg, route oral. The following applies: in vivo, 240 h.
Data set [9] relates to Mus musculus. Nature of the data set: Anti-inflammatory activity in Mus musculus albino (mouse) assessed as inhibition of formalin-induced paw swelling at 30 mg/kg, po administered 30 min prior formalin challenge measured after 90 min post challenge (reference value: 9.5 +/- 0.04 mm/min). It is filed as functional.
The test system of data set [10] is Mus musculus. In words: Toxicity in Mus musculus albino (mouse) assessed as bluish skin at 80 to 375 mg/kg, ip. It is filed as organism-based. On the set-up: dose 80-375 mg/kg, route intraperitoneal. The following applies: in vivo.
Data set [11] relates to Mus musculus. Nature of the data set: Toxicity in Mus musculus albino (mouse) assessed as brownish eye mucus at 80 to 375 mg/kg, ip. The data set is classed as organism-based. On the set-up: dose 80-375 mg/kg, route intraperitoneal. The following applies: in vivo.
Data set [12] concerns Mus musculus. In words: Toxicity in Mus musculus albino (mouse) assessed as increase in heart rate at 80 to 375 mg/kg, ip. The data set is classed as organism-based. The following applies: in vivo. Set-up: dose 80-375 mg/kg, route intraperitoneal.
Data set [13] relates to Mus musculus. Nature of the data set: Toxicity in ip dosed Mus musculus albino (mouse) assessed as mortality measured per gram body weight. It is filed as organism-based. The settings on record: in vivo.
In data set [14] the test system is Mus musculus. In words: Anti-inflammatory activity in Mus musculus albino (mouse) assessed as inhibition of formalin-induced paw swelling at 30 mg/kg, po administered 30 min prior formalin challenge measured after 120 min post challenge (reference value: 9.83 +/- 0.071 mm/min). The data set is classed as functional.
In data set [15] the test system is Mus musculus. In words: Anti-inflammatory activity in Mus musculus albino (mouse) assessed as inhibition of formalin-induced paw swelling at 30 mg/kg, po administered 30 min prior formalin challenge measured after 30 min post challenge (reference value: 9.46 +/- 0.035 mm/min). It is filed as functional.
Data set [16] relates to Mus musculus. In words: Toxicity in Mus musculus albino (mouse) assessed as serum TBARS level at 300 mg/kg, po for 10 days (reference value: 4.35 +/- 0.86 U/l). The settings on record: in vivo, 240 h. It is filed as organism-based. On the set-up: dose 300 mg/kg, route oral.
The test system of data set [17] is Mus musculus. Nature of the data set: Toxicity in Mus musculus albino (mouse) assessed as general depression at 80 to 375 mg/kg, ip. The data set is classed as organism-based. On the set-up: dose 80-375 mg/kg, route intraperitoneal. The settings on record: in vivo.
In data set [18] the test system is Mus musculus. Nature of the data set: Anti-inflammatory activity in Mus musculus albino (mouse) assessed as inhibition of formalin-induced paw swelling at 30 mg/kg, po administered 30 min prior formalin challenge measured after 60 min post challenge (reference value: 9.73 +/- 0.06 mm/min). The data set is classed as functional.
For data set [19], the system named is Mus musculus. In words: Toxicity in Mus musculus albino (mouse) assessed as SOD activity per gram of Hb at 300 mg/kg, po for 10 days (reference value: 12.7+/- 2.08 U/g Hb). It is filed as organism-based. Set-up: dose 300 mg/kg, route oral. The following applies: in vivo, 240 h.
In data set [20] the test system is Mus musculus. In words: Toxicity in Mus musculus albino (mouse) assessed as serum LDH level at 300 mg/kg, po for 10 days (reference value: 217.84 +/- 13.36 U/l). The data set is classed as organism-based. The settings on record: in vivo, 240 h. Set-up: dose 300 mg/kg, route oral.
Data set [21] deals with Mus musculus. In words: Toxicity in Mus musculus albino (mouse) assessed as serum ALP level at 300 mg/kg, po for 10 days (reference value: 31.63 +/- 3.73 U/l). The data set is classed as organism-based. Set-up: dose 300 mg/kg, route oral. The settings on record: in vivo, 240 h.
For data set [22], the system named is Mus musculus. In words: Toxicity in Mus musculus albino (mouse) assessed as serum TBARS level at 600 mg/kg, po for 10 days (reference value: 4.35 +/- 0.86 U/l). The data set is classed as organism-based. On the set-up: dose 600 mg/kg, route oral. The settings on record: in vivo, 240 h.
Data set [23] concerns Mus musculus. In words: Toxicity in Mus musculus albino (mouse) assessed as serum LDH level at 600 mg/kg, po for 10 days (reference value: 217.84 +/- 13.36 U/l). It is filed as organism-based. On the set-up: dose 600 mg/kg, route oral. The settings on record: in vivo, 240 h.
Data set [24] deals with Mus musculus. Nature of the data set: Toxicity in Mus musculus albino (mouse) assessed as serum SGOT level at 600 mg/kg, po for 10 days (reference value: 9.74 +/- 1.73 U/l). On the set-up: dose 600 mg/kg, route oral. The data set is classed as organism-based. The following applies: in vivo, 240 h.
Data set [25] concerns Mus musculus. In words: Toxicity in Mus musculus albino (mouse) assessed as serum gamma-glutamyl transferase level at 600 mg/kg, po for 10 days (reference value: 4.43 +/- 0.31 U/l). It is filed as organism-based. On the set-up: dose 600 mg/kg, route oral. The settings on record: in vivo, 240 h.
The subject of data set [26] is Mus musculus. Nature of the data set: Anti-inflammatory activity in Mus musculus albino (mouse) assessed as inhibition of formalin-induced paw swelling at 60 mg/kg, po administered 30 min prior formalin challenge measured after 120 min post challenge (reference value: 9.83 +/- 0.071 mm/min). The data set is classed as functional.
The test system of data set [27] is Mus musculus. In words: Toxicity in Mus musculus albino (mouse) assessed as SOD activity per gram of Hb at 600 mg/kg, po for 10 days (reference value: 12.7 +/- 2.08 U/g Hb). The data set is classed as organism-based. Set-up: dose 600 mg/kg, route oral. The following applies: in vivo, 240 h.
For data set [28], the system named is Mus musculus. In words: Anti-inflammatory activity in Mus musculus albino (mouse) assessed as inhibition of formalin-induced paw swelling at 60 mg/kg, po administered 30 min prior formalin challenge measured after 30 min post challenge (reference value: 9.46 +/- 0.035 mm/min). It is filed as functional.
The test system of data set [29] is Mus musculus. In words: Toxicity in Mus musculus albino (mouse) assessed as GPx activity per gram of Hb at 600 mg/kg, po for 10 days (Rvb =179.16 +/- 10.45 U/g Hb). It is filed as organism-based. Set-up: dose 600 mg/kg, route oral. The settings on record: in vivo, 240 h.
For data set [30], the system named is Mus musculus. In words: Toxicity in Mus musculus albino (mouse) assessed as GSH activity at 600 mg/kg, po for 10 days (reference value: 59.57 +/- 5.10 %). It is filed as organism-based. Set-up: dose 600 mg/kg, route oral. The settings on record: in vivo, 240 h.
The subject of data set [31] is Mus musculus. In words: Toxicity in Mus musculus albino (mouse) assessed as serum ALP level at 600 mg/kg, po for 10 days (reference value: 31.63 +/- 3.73 U/l). The data set is classed as organism-based. On the set-up: dose 600 mg/kg, route oral. The settings on record: in vivo, 240 h.
Data set [32] concerns Mus musculus. Nature of the data set: Toxicity in Mus musculus albino (mouse) assessed as serum SGPT level at 600 mg/kg, po for 10 days (reference value: 35.82 +/- 5.26 U/l). Set-up: dose 600 mg/kg, route oral. The following applies: in vivo, 240 h. It is filed as organism-based.
The subject of data set [33] is Mus musculus. Nature of the data set: Anti-inflammatory activity in Mus musculus albino (mouse) assessed as inhibition of formalin-induced paw swelling at 60 mg/kg, po administered 30 min prior formalin challenge measured after 60 min post challenge (reference value: 9.73 +/- 0.06 mm/min). It is filed as functional.
For data set [34], the system named is Mus musculus. In words: Anti-inflammatory activity in Mus musculus albino (mouse) assessed as inhibition of formalin-induced paw swelling at 60 mg/kg, po administered 30 min prior formalin challenge measured after 90 min post challenge (reference value: 9.5 +/- 0.04 mm/min). The data set is classed as functional.

For the compound `COc1ccccc1/C=N/n1c(Nc2ccc(S(N)(=O)=O)cc2)nc2ccccc2c1=O`, the Activity was 183 U/g Hb in [1]; 61.45% in data set [2]; “Toxic” in [3]; “Toxic” in data set [4]; 4.12 U/L in [5]; 33.65 U/L in data set [6]. Also, the Activity entry in data set [7] is given as “Toxic”; in data set [8], 10.7 U/L; in [9], 7.19 millimeter/min; in data set [10], “Toxic”; in data set [11], “Toxic”; in data set [12] it was “Toxic”. Also, the Activity in data set [13] is 222.25 millimeter/min; in data set [14], 6.5 millimeter/min; in data set [15], 7.76 millimeter/min; in data set [16] it was 3.97 nmol/mL; in data set [17], “Toxic”; in [18], 7.78 millimeter/min. For the same compound, the Activity was 13.1 U/g Hb in data set [19], 205.65 U/L in data set [20] and 30.01 U/L in data set [21].

Turning to `COc1ccc2c(c1)c(CC(=O)O)c(C)n2C(=O)c1ccc(Cl)cc1` [INDOMETHACIN], the Activity in data set [22] was 7.45 nmol/mL; in data set [23], 326.8 U/L; in data set [24], 24.51 U/L; in data set [25], 9.45 U/L; in data set [26] it was 6.98 millimeter/min; in [27], 7.45 U/g Hb. For the same compound, the Activity worked out at 6.5 millimeter/min in data set [28]; 134 U/g Hb in [29]; 45.32% in data set [30]; 76.41 U/L in data set [31]; 65.37 U/L in data set [32]; 7.19 millimeter/min in [33]. Further, the Activity in data set [34] worked out at 7.2 millimeter/min.
